According to US6806359B1, “Hormone receptor compositions and methods” (The Salk Institute for Biological Studies, priority 1986, dated 2004):
“Also recorded” adds a separate entry of the source.

Experiments:
GR [1] = molecular target: T1, GR (Homo sapiens, UniProt P04150); conditions: read-out: KD for binding to GR; cited from earlier work
T1 sequence (P04150 1-777): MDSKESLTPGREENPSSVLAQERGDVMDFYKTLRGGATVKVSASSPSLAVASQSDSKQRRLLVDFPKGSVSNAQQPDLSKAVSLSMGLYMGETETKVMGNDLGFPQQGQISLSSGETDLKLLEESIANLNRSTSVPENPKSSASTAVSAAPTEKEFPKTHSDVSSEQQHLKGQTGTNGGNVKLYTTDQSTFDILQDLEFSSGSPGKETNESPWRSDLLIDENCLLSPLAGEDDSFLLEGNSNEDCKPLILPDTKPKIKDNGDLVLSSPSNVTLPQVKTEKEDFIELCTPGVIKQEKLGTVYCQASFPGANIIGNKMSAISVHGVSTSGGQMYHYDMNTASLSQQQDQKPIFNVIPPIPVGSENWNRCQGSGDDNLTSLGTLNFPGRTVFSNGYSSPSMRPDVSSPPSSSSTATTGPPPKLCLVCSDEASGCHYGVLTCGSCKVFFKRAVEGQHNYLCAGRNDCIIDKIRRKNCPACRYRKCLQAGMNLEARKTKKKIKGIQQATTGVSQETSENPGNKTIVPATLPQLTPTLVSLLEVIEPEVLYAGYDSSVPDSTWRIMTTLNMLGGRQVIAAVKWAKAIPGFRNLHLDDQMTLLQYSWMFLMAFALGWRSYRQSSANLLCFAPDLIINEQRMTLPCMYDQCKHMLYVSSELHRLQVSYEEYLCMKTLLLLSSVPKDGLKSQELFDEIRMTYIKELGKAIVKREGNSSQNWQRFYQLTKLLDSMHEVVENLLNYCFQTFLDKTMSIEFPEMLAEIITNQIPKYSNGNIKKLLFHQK

hMR [2] = molecular target: T2, hMR (Homo sapiens, UniProt P08235); experiment: Transcriptional activation of MMTV LTR (GMCAT) by hMR in transfected CV1 cells; format: cell-based; design: expressed in transfected cells; conditions: pRShMR + GMCAT, charcoal-treated serum, 10 nM steroid
T2 sequence (P08235 1-984): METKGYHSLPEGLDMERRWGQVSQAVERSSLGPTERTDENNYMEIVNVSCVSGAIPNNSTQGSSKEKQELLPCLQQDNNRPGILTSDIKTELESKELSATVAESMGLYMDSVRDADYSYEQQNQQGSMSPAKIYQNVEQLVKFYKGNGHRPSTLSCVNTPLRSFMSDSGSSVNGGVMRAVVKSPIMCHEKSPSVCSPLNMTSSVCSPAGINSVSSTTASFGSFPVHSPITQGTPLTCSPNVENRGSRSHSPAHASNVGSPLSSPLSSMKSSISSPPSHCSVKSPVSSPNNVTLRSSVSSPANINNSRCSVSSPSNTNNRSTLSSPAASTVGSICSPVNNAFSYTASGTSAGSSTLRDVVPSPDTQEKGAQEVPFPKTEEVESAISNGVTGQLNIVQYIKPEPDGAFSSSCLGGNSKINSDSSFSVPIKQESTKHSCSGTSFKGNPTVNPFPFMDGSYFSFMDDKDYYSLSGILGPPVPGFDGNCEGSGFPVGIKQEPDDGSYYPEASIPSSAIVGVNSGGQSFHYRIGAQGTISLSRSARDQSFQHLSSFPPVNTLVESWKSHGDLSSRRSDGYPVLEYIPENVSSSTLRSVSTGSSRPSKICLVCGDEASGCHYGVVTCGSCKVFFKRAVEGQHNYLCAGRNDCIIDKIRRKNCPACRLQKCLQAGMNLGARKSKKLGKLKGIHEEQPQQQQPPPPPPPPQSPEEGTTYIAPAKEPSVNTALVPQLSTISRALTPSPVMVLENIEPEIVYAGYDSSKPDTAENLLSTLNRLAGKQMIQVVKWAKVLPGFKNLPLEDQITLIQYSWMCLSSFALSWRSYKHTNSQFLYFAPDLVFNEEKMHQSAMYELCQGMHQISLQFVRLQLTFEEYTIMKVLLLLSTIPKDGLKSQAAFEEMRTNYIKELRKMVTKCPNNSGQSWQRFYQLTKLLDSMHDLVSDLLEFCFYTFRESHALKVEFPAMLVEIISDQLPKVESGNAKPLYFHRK
Excerpt: Steroid hormone action is characterized by hormone-dependent modulation of target gene transcription. The assay for transcriptional regulation by transfected hGR in CVI cells (see Experimental Section II) was adapted to hMR (FIGS. 42 and 44). The expression plasmid used for steroid-binding assays, pRShMR, was cotransfected with a reporter plasmid called GMCAT, which contains the MMTV LTR linked to the bacterial gene for chloramphenicol acetyltransferase (CAT). Thus CAT activity provides an enzymatic assay for the transcriptional activity of the MMTV promoter. The MMTV promoter contains several glucorticoid response elements (GRE's), enhancer-like DNA sequences that confer glucocorticoid responsiveness via interaction with the GR (21).
FIG. 42 Structure of GMCAT. This plasmid was cotransfected with the steroid receptors as a reporter gene for hormone-dependent transcriptional activation (see Experimental Section II). […] Transfected cells were maintained in DMEM with 5 percent fetal calf serum. Serum was treated with charcoal to eliminate free steroids in subsequent experiments so that the effects of exogenous steroids could be determined. […] (D) AC, 3-acetylchloramphenicol; C, chloramphenicol. Two days after transfection by calcium phosphate coprecipitation (43), extracts were prepared for CAT assay (44). The assays were incubated for 6 hours with 50 micrograms of protein extract.

MR = conditions: read-out: reported KD values for aldosterone binding to MR; cited from earlier work
GR [3] = molecular target: T1, GR; experiment: Transcriptional activation of MMTV LTR (GMCAT) by hGR in transfected CV1 cells; format: cell-based; design: The expression vector linking the RSV LTR to full length hGR cDNA (pRShGR alpha) was designed to obtain high levels of expression; expressed in transfected cells; host or cells: CV1 monkey kidney cells, cotransfected with GMCAT; conditions: pRShGR alpha + GMCAT, 10 nM steroid
rTR alpha = molecular target: T3, rTR alpha (Rattus norvegicus, UniProt P63059); experiment: ^125I-T3 binding to in vitro translated rTR alpha (Scatchard and competition); conditions: excess competitor
T3 construct: made in house; host or cells: rabbit reticulocyte lysate (SP6 transcripts of rbeA12B)
T3 sequence (P63059 1-410 isoform P63059-2): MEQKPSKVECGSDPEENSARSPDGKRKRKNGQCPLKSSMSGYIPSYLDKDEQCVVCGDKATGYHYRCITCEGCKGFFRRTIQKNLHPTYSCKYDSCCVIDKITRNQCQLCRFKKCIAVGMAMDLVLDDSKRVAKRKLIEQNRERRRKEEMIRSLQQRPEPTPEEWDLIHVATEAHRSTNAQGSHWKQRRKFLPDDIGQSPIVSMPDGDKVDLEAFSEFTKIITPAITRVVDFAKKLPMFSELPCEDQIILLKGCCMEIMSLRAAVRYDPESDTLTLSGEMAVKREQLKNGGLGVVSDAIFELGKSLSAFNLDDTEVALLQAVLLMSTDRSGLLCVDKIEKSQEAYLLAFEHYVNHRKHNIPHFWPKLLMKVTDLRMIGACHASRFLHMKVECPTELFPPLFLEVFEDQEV
Excerpt: In vitro translation and thyroid hormone binding of rTR alpha FIG. 69 rTR alpha was transcribed in vitro and translated in a rabbit reticulocyte lysate. […] Lane 1, no added RNA; lane 2, rbeA12, which contains the entire 5′ untranslated region; lane 3, rbeA12B, which contains only 97 bp of 5′ untranslated sequence. […] Samples from rbeA12B programmed lysates were mixed with increasing concentrations of unlabeled thyroid hormone or analogs to compete with labeled hormone. […] In vitro transcription and translation and hormone binding were performed as described (22, 23).
23. For in vitro transcription, the entire EcoRI insert of rbeA12 was cloned into pGEM1 (Promega Biotec). […] For thyroid hormone binding, transcriptions were performed with SP6 polymerase and 5 to 10 micrograms of rbeA12B linearized with SstI. […] Thyroid hormone binding for both the Scatchard and competition analyses were determined in the same manner, except that unlabeled protein was used for the Scatchard analysis. […] Specific hormone binding was determined by adding a 1000-fold excess of unlabeled hormone and assayed by counting radioactivity eluting in the excluded volume from a Sephadex G-25 fine (Pharmacia) 0.9-by 4.0-cm. column.

hMR [4] = molecular target: T2, hMR; experiment: [^3H]aldosterone binding and steroid competition in extracts of pRShMR-transfected COS cells; design: expressed in transfected cells; host or cells: COS cells transfected with pRShMR (DEAE-dextran); conditions: 1-, 10-, or 100-fold molar excess of unlabeled steroid
Method: Ligand specificity of the hMR protein was determined by preparing cytosol extracts from COS cells transfected with pRShMR. Two days after transfection, cells were harvested, and hormone binding was measured by a dextran-treated charcoal assay. […] This provided a measure of the relative affinity of each of these steroids for hMR.
Steroid-binding properties of expressed hMR. FIG. 38 Structure of pRShMR, the hMR expression plasmid (41). […] Each point was assayed in triplicate with 100 micrograms of extract protein in a 200-microliter incubation at 0° C. for 2.5 hours. […] The results of two independent trials representative of these competition experiments are shown. Cold competitor was present in 1-, 10-, or 100-fold molar excess. […] Subconfluent COS cells were transfected by the DEAE-dextran method (42) with 10 micrograms of pRShMR per dish. Cells were maintained for 2 days in DMEM (Dulbecco's modification of Eagle's minimum essential medium) with 5 percent charcoal-treated fetal calf serum, then harvested in […] tris-HCl. (pH 7.8), 10 nM NaCl, 1 mM EDTA, 10 mM Na2MoO4, 5 mM dithiothreitol, antipain (5 microgram/ml), leupeptin (5 microgram/ml), and 500 microM phenylmethylsulfonyl fluoride. After centrifugation at 15,000×g for 10 minutes, extracts were adjusted to 100 mM NaCl and 5 percent glycerol before binding. […] After centrifugation at 15,000×g for 2 minutes at 40C, tritium in supernatant was quantified by liquid scintillation spectrophotometry.

[5] = molecular target: T4, alpha-hGR (human glucocorticoid receptor) translated in vitro (Homo sapiens, UniProt P04150); experiment: Steroid binding (^3H-triamcinolone acetonide) of hGR translated in vitro in reticulocyte lysate, competition by unlabeled steroids; conditions: 100-fold excess unlabeled competitor (15 microM), 2 h at 0° C.
T4 construct: We describe the use of the SP6 transcription vector system to generate analytical amounts of full-length protein; made in house; host or cells: rabbit reticulocyte lysate (cell-free translation of SP6 transcripts)
T4 sequence (P04150 1-777): T1 sequence (P04150 1-777)
Method: Steroid-binding of alpha-hGR translated in vitro. […] Bars represent bound ^3H-triamcinolone acetonide (TA) determined with a 100-fold excess of various steroid competitors; 100% competition was determined using unlabeled TA as competitor. The values represent the mean of triplicate determinations, with error bars showing […].
Binding assays were performed in 100 microliters containing 10 mM Tris-HCl pH 7.4, 100 mM NaCl, 1 mM EDTA, 10 mM sodium molybdate, 10 dithiothreitol, […] ^3H-TA (20 Ci mmol^−1, Amersham) and 10 microliters translation mixture or 100 microgram fresh 1M-9 cytosol. Unlabeled steroid competitor (15 microM) was added as indicated. After 2 h at 0° C., samples were extracted twice for 5 min. each with 5 microliter of 50% dextran-coated charcoal to remove unbound steroid, and counted.

Structure (SMILES)	Kd (GR [1]) [nM]	hMR-mediated CAT activity response (in words) (hMR [2])	Kd (MR) [nM]	hGR-mediated CAT activity response (in words) (GR [3])	competition for T3 binding to rTR alpha by excess compound (rTR alpha)	relative affinity for hMR by competition with 5 nM [^3H]aldosterone (in words) (hMR [4])	relative affinity for hMR by competition with 5 nM [^3H]aldosterone (in words) (hMR [4]; listed as hydrocortisone)	competition with ^3H-TA binding to in vitro-synthesized alpha-hGR by excess unlabeled steroid [5]
C[C@]12CCC(=O)C=C1CC[C@@H]1[C@@H]2[C@@H](O)C[C@]2(C=O)[C@@H](C(=O)CO)CC[C@@H]12 [aldosterone]	25 to 65	became responsive; also recorded: approximately equivalent	0.5 to 3	did not respond; also recorded: insensitive	no competition			
C[C@]12CCC(=O)C=C1CC[C@@H]1[C@@H]2[C@@H](O)C[C@@]2(C)[C@H]1CC[C@]2(O)C(=O)CO [cortisol]		also observed				compete as effectively as aldosterone itself	very similar affinities	could be competed with
